Experimental data from patent US20240158348A1, “HERBICIDAL CYCLIC AMIDES N-SUBSTITUTED WITH A HALOALKYLSULFONYLANILIDE GROUP” (FMC Corporation, priority 2021, published 2024).

What was measured:
Format in all cases: in vivo
[1] = system: ragweed (common ragweed, Ambrosia artemisiifolia); experiment: Test A preemergence, ragweed; conditions: pre-emergence, 240 h, 0 to 100 scale, 10 days, read-out: Plant response rating, Ragweed; for pest or weed control at 31 g/ha: 31 g ai/ha; for pest or weed control at 125 g/ha: 125 g ai/ha
Source text: (§1) Seeds of plant species selected from barnyardgrass (Echinochloa crus-galli), blackgrass (Alopecurus myosuroides), corn (Zea mays), foxtail, giant (giant foxtail, Setaria faberi), goosegrass (Eleusine indica), kochia (Bassia scoparia), oat, wild (wild oat, Avena fatua), pigweed, palmer (palmer amaranth, Amaranthus palmeri), pigweed, redroot (redroot pigweed, Amaranthus retroflexus), ragweed (common ragweed, Ambrosia artemisiifolia), ryegrass, Italian (Italian ryegrass, Lolium multiflorum), soybean (Glycine max), and wheat (Triticum aestivum) were planted into a blend of loam soil and sand and treated preemergence with a directed soil spray using test chemicals formulated in a non-phytotoxic solvent mixture which included a surfactant.
(§2) At the same time, plants selected from these crop and weed species and also galium (catchweed bedstraw, Galium aparine) and horseweed (Erigeron canadensis) were planted in pots containing the same blend of loam soil and sand and treated with postemergence applications of test chemicals formulated in the same manner. Plants ranged in height from 2 to 10 cm and were in the one- to two-leaf stage for the postemergence treatment. Treated plants and untreated controls were maintained in a greenhouse for 10 days, after which time all treated plants were compared to untreated controls and visually evaluated for injury. Plant response ratings, summarized in Table A, are based on a 0 to 100 scale where 0 is no effect and 100 is complete control. A dash (-) response means no test result.

[2] = system: corn (Zea mays); experiment: Test A postemergence, corn; conditions: post-emergence, 240 h, 0 to 100 scale, 10 days; for Corn plant response rating (crop injury, 0 = no effect, 100 = complete kill) at 31 g/ha: 31 g ai/ha; for Corn plant response rating (crop injury, 0 = no effect, 100 = complete kill) at 125 g/ha: 125 g ai/ha
Source text: as §1, §2

[3] = system: ducksalad (Heteranthera limosa); experiment: Test B flooded paddy test, ducksalad; conditions: 250 g ai/ha, Flood, scale of 0 to 100 where 0 is no effect and 100 is complete control, visually evaluated after 10 to 14 days, read-out: Plant response rating, Ducksalad
Experimental: (§3) Plant species in the flooded paddy test selected from barnyardgrass (Echinochloa crusgalli), ducksalad (Heteranthera limosa), rice (Oryza sativa), and sedge, umbrella (small-flower umbrella sedge, Cyperus difformis) were grown to the 2-leaf stage for testing. At time of treatment, test pots were flooded to 3 cm above the soil surface, treated by application of test compounds directly to the paddy water, and then maintained at that water depth for the duration of the test. Treated plants and controls were maintained in a greenhouse for 10 to 14 days, after which time all species were compared to controls and visually evaluated. Plant response ratings, summarized in Table B, are based on a scale of 0 to 100 where 0 is no effect and 100 is complete control. A dash (-) response means no test result.

[4] = system: ryegrass, Italian (Italian ryegrass, Lolium multiflorum); experiment: Test A postemergence, Italian ryegrass; conditions: post-emergence, 240 h, 0 to 100 scale, 10 days, read-out: Plant response rating, Ryegrass, Italian; for pest or weed control at 31 g/ha: 31 g ai/ha; for pest or weed control at 125 g/ha: 125 g ai/ha
Source text: as §1, §2

[5] = system: ryegrass, Italian (Italian ryegrass, Lolium multiflorum); experiment: Test A preemergence, Italian ryegrass; conditions: pre-emergence, 240 h, 0 to 100 scale, 10 days, read-out: Plant response rating, Ryegrass, Italian; for pest or weed control at 31 g/ha: 31 g ai/ha; for pest or weed control at 125 g/ha: 125 g ai/ha
Source text: as §1, §2

[6] = system: sedge, umbrella (small-flower umbrella sedge, Cyperus difformis); experiment: Test B flooded paddy test, umbrella sedge; conditions: 250 g ai/ha, Flood, scale of 0 to 100 where 0 is no effect and 100 is complete control, visually evaluated after 10 to 14 days, read-out: Plant response rating, Sedge, Umbrella
Experimental: as §3

[7] = system: goosegrass (Eleusine indica); experiment: Test A preemergence, goosegrass; conditions: 0 to 100 scale, 10 days
Source text: as §1, §2

[8] = system: corn (Zea mays); experiment: Test A preemergence, corn; conditions: 0 to 100 scale, 10 days
Source text: as §1, §2

[9] = system: oat, wild (wild oat, Avena fatua); experiment: Test A postemergence, wild oat; conditions: 0 to 100 scale, 10 days
Source text: as §1, §2

[10] = system: pigweed, palmer (palmer amaranth, Amaranthus palmeri); experiment: Test A preemergence, palmer amaranth; conditions: 0 to 100 scale, 10 days
Source text: as §1, §2

[11] = system: goosegrass (Eleusine indica); experiment: Test A postemergence, goosegrass; conditions: 0 to 100 scale, 10 days
Source text: as §1, §2

| SMILES | pest or weed control at 31 g/ha [1] [%] | pest or weed control at 125 g/ha [1] [%] | Corn plant response rating (crop injury, 0 = no effect, 100 = complete kill) at 31 g/ha [2] [%] | Corn plant response rating (crop injury, 0 = no effect, 100 = complete kill) at 125 g/ha [2] [%] | pest or weed control at 250 g/ha [3] [%] | pest or weed control at 31 g/ha [4] [%] | pest or weed control at 125 g/ha [4] [%] | pest or weed control at 31 g/ha [5] [%] | pest or weed control at 125 g/ha [5] [%] | pest or weed control at 250 g/ha [6] [%] | Plant response rating, Goosegrass ([7]; 31 g ai/ha) | Plant response rating, Goosegrass ([7]; 125 g ai/ha) | Plant response rating, Corn ([8]; 31 g ai/ha) | Plant response rating, Corn ([8]; 125 g ai/ha) | Plant response rating, Oat, Wild ([9]; 31 g ai/ha) | Plant response rating, Oat, Wild ([9]; 125 g ai/ha) | Plant response rating, Pigweed, Palmer ([10]; 31 g ai/ha) | Plant response rating, Pigweed, Palmer ([10]; 125 g ai/ha) | Plant response rating, Goosegrass ([11]; 31 g ai/ha) | Plant response rating, Goosegrass ([11]; 125 g ai/ha) |
| --- | --- | --- | --- | --- | --- | --- | --- | --- | --- | --- | --- | --- | --- | --- | --- | --- | --- | --- | --- | --- |
| C=CCOC1CCN(c2cc(NS(=O)(=O)C(F)(F)F)c(C)cc2C)C1=O (centres unmarked) [Compound 2, N-[2,4-dimethyl-5-[2-oxo-3-(2-propen-1-yloxy)-1-pyrrolidinyl]phenyl]-1,1,1-trifluoromethanesulfonamide] | 20 | 80 | 0 | 90 | 75 | 70 | 70 | 90 | 100 | 85 | – | – | – | – | – | – | – | – | – | – |
| Cc1cc(C)c(N(COC(=O)C(C)(C)C)S(=O)(=O)C(F)(F)F)cc1N1CCC(OC2CCC2)C1=O (centres unmarked) [Compound 8, [[5-[3-(cyclobutyloxy)-2-oxo-1-pyrrolidinyl]-2,4-dimethylphenyl][(trifluoromethyl)sulfonyl]amino]methyl 2,2-dimethylpropanoate] | 20 | 90 | 30 | 80 | 95 | 40 | 100 | 50 | 90 | 95 | 70 | 100 | 0 | 10 | 10 | 30 | 30 | 90 | 80 | 90 |
| Cc1cc(C)c(N2CCC(OC3CCCC3)C2=O)cc1NS(=O)(=O)C(F)(F)F (centres unmarked) [Compound 6, N-[5-[3-(cyclopentyloxy)-2-oxo-1-pyrrolidinyl]-2,4-dimethylphenyl]-1,1,1-trifluoromethanesulfonamide] | 30 | 90 | 0 | 90 | 85 | 0 | 50 | 80 | 90 | 75 | 90 | 100 | 30 | 80 | 0 | 20 | 70 | 100 | 80 | 90 |
| C#CCOC1CCN(c2cc(NS(=O)(=O)C(F)(F)F)c(C)cc2C)C1=O (centres unmarked) [Compound 1, N-[2,4-dimethyl-5-[2-oxo-3-(2-propyn-1-yloxy)-1-pyrrolidinyl]phenyl]-1,1,1-trifluoromethanesulfonamide] | 30 | 90 | 50 | 90 | 80 | 70 | 70 | 100 | 100 | 90 | – | – | – | – | – | – | – | – | – | – |
| Cc1cc(C)c(N(COC(=O)C(C)(C)C)S(=O)(=O)C(F)(F)F)cc1N1CCC(OC2CC2)C1=O (centres unmarked) [Compound 7, [[5-[3-(cyclopropyloxy)-2-oxo-1-pyrrolidinyl]-2,4-dimethylphenyl][(trifluoromethyl)sulfonyl]amino]methyl 2,2-dimethylpropanoate] | 30 | 90 | 90 | 90 | 95 | 50 | 90 | 100 | 100 | 90 | 80 | 100 | 0 | 50 | 30 | 70 | 50 | 100 | 90 | 90 |
| Cc1cc(C)c(N2CCC(OC3CCC3)C2=O)cc1NS(=O)(=O)C(F)(F)F (centres unmarked) [Compound 4, N-[5-[3-(cyclobutyloxy)-2-oxo-1-pyrrolidinyl]-2,4-dimethylphenyl]-1,1,1-trifluoromethanesulfonamide] | 90 | 100 | 90 | 0 | 100 | 80 | 80 | 100 | 100 | 100 | 100 | 100 | 40 | 90 | 30 | 60 | 100 | 100 | 70 | 90 |
| Cc1cc(C)c(N(COC(=O)C(C)(C)C)S(=O)(=O)C(F)(F)F)cc1N1CCC(OC2CCCC2)C1=O (centres unmarked) [Compound 5, [[5-[3-(cyclopentyloxy)-2-oxo-1-pyrrolidinyl]-2,4-dimethylphenyl][(trifluoromethyl)sulfonyl]amino]methyl 2,2-dimethylpropanoate] | 0 | 40 | 0 | 80 | 95 | 20 | 40 | 20 | 90 | 85 | 10 | 90 | 0 | 20 | 20 | 30 | 10 | 50 | 50 | 90 |
| Cc1cc(C)c(N2CCC(OC3CC3)C2=O)cc1NS(=O)(=O)C(F)(F)F (centres unmarked) [Compound 3, N-[5-[3-(cyclopropyloxy)-2-oxo-1-pyrrolidinyl]-2,4-dimethylphenyl]-1,1,1-trifluoromethanesulfonamide] | 90 | 100 | 90 | 90 | 98 | 90 | 90 | 90 | 100 | 98 | 70 | 100 | 90 | 90 | 40 | 80 | 100 | 100 | 80 | 90 |
